PMC4102529, “FRET Based Quantification and Screening Technology Platform for the Interactions of Leukocyte Function-Associated Antigen-1 (LFA-1) with InterCellular Adhesion Molecule-1 (ICAM-1)” (PLoS ONE, 2014)

Experiments:
[1] = tested on: LFA-1/D1-D2-Fc (ICAM-1) interaction; test: Steady-state FRET based competitive screening assay for inhibition of the LFA-1/D1-D2-Fc interaction; type: binding, human; conditions: for inhibition efficiency: 100 nM Alexa Fluor 488-LFA-1 + 100 nM Alexa Fluor 555-D1-D2-Fc, PBS, pH 7.4, 1 mM EGTA, 2 mM Mg^2+, 30 min, dark, calculated from FRET efficiency, Eq. (1); for FRET efficiency: mean ± rms, control without inhibitor 53.51 ± 0.10%, A/D = 2.12, excitation 470 nm, Eq. (3); for rank of inhibition efficiency among the three LFA-1 derived peptides: 0.02, 0.2, 2 and 20 µM
Procedure: But with increasing concentration of the lovastatin, the FRET efficiency decreased to 5.3% for 200 µM of lovastatin. The inhibition efficiency (%) was calculated for each concentration of lovastatin using the relation,
[drawing 1] (1) where Fcontrol is the FRET efficiency of the Alexa Fluor 488-LFA-1 and Alexa Fluor 555-D1-D2-Fc alone and Fx is that of the FRET mixture when incubated with inhibitors. The inhibition efficiency of lovastatin was calculated to be 69.48±0.77%, 73.84±0.56%, 84.98±0.10%, and 90.03±0.06% for 0.2, 2, 20, and 200 µM respectively [Fig. 7(a)].
To characterize and compare the inhibitory activity of the selected peptides, CD11a237–261, CD11a441–465, and CD11a456–465, the FRET mixture was incubated with several concentrations (0.02, 0.2, 2, and 20 µM) of the peptides (following the procedure described in the “Materials and Methods” section) and the FRET efficiency (Tables S3, S4, S5) and the inhibition efficiency [Fig. 7(b)] were calculated for each case. The inhibition efficiency for CD11a237–261 at 0.02, 0.2, 2, and 20 µM are 40.81±0.31%, 47.05±0.56%, 53.16±0.70%, 65.13±0.81%, respectively; the corresponding values for CD11a441–465, at the same concentrations, are 20.89±0.72%, 37.08±0.29%, 46.93±0.89%, 62.01±0.15%, respectively; and for CD11a456–465, the corresponding values are 12.17±0.91%, 20.26±0.69%, 36.46±0.42%, 51.41±0.33%. From these values, we note that the difference in inhibition efficiency of these three peptides is much more significant at low peptide concentration (on the order of 0.02 to 0.2 µM), the cause of which requires further investigation. Nevertheless, in all cases, the inhibition efficiency of CD11a237–261 is highest and CD11a456–465 the lowest, which are in good agreement with those reported in the literature.
The FRET efficiency can be adjusted by changing the fluorophore to protein ratio; the optimal acceptor to donor fluorophore (A/D) ratio was obtained following the procedure reported in the literature with slight modification. In short, A/D is defined as the number of the acceptor fluorophore molecules to donor molecule in the interacting protein complex. Several concentration ratios of Alexa Fluor 488-LFA-1 and Alexa Fluor 555-D1-D2-Fc were incubated for 30 minutes at room temperature and the FRET emission spectra were obtained via a fluorescence multiplate reader, Tecan Infinite M200 pro (Männedorf, Switzerland). For each concentration ratio, the concentration of the acceptor conjugate, Alexa Fluor 555-D1-D2-Fc, was kept constant. The optimal A/D ratio for the FRET pair was selected by comparing the FRET efficiencies for different A/D ratios. […] Due to these facts, we have used equation (3), [65] given below for the FRET efficiency (E) calculation which incorporates the cross-talk corrections for each of the A/D ratios. [drawing 3] (3) here, (λ470, λ) denotes the numerical integral of the emission spectrum between 560 and 610 nm when excited with 470 nm. fDA, fA, and fD represent the emission spectra of the FRET mixture, acceptor alone, and donor alone, respectively. The absorbance values of donor and acceptor, at the excitation maximum of Alexa Fluor 488 of 470 nm, is represented by A^D and A^A, respectively. […] In this article, the calculation was implemented assuming that there […] in the overlap integral with different F/P and the (associated) different A/D ratios. The optimal A/D ratio was used for the development of the FRET based screening platform for the assessment of peptides and small molecules for their inhibition efficiency of the LFA-1 and ICAM-1 interactions.
The donor, Alexa Fluor 488-LFA-1, with a concentration corresponding to the […] A/D ratio was mixed with each kind of LFA-1 derived peptides (CD11a237–261, CD11a441–465, and CD11a456–465) in PBS, pH 7.4, 1 mM EGTA and 2 mM Mg^2+. […]

[2] = tested on: human immunodeficiency virus type 1; conditions: ref [59]; cited from earlier work
[3] = tested on: interaction of ICAM-1 with LFA-1; parameters: method as in PMID 12368073; conditions: ref [34]; cited from earlier work
Excerpt: Based on these roles in several disease pathologies, the LFA-1/ICAM-1 interaction can serve as a potential therapeutic target in the development of new therapies for the autoimmune diseases, metastasis cancer, and viral diseases. […] Furthermore, several […] therapies were developed for the treatment of autoimmune diseases. However, […] therapies have serious side effects in humans due to their large molecular structure an ...

[4] = tested on: I-domain of LFA-1 (CD11a I-domain); conditions: ref [58]; cited from earlier work
Excerpt: In our study, we identified three LFA-1 derived peptides, CD11a237–261, […], and CD11a456–465, to compare their inhibition efficiency via our steady-state FRET based competitive screening assay. Moreover, the inhibition efficiency of lovastatin, a well-known potent inhibitor of the ICAM-1 interaction, was also obtained to further validate the FRET screening platform. ...

Row | Compound | inhibition efficiency ([1]; 0.02 µM inhibitor) [%] | FRET efficiency ([1]; 0.02 µM inhibitor) [%] | inhibition efficiency ([1]; 0.2 µM inhibitor) [%] | FRET efficiency ([1]; 0.2 µM inhibitor) [%] | inhibition efficiency ([1]; 2 µM inhibitor) [%] | FRET efficiency ([1]; 2 µM inhibitor) [%] | inhibition efficiency ([1]; 20 µM inhibitor) [%] | FRET efficiency ([1]; 20 µM inhibitor) [%] | rank of inhibition efficiency among the three LFA-1 derived peptides [1] | inhibition efficiency ([1]; 200 µM inhibitor) [%] | FRET efficiency ([1]; 200 µM inhibitor) [%] | FRET efficiency ([1]; 200 µM inhibitor, listed as Lovastatin) [%] | effect on HIV-1 replication [2] | inhibition of the interaction of ICAM-1 with LFA-1 [3] | binding to the I-domain of LFA-1 [4]
1 | GVDVDQDGETEL-IGAPLFYGEQRG [CD11a441–465, LFA-1α derived peptide, purchased from GenScript] | 20.89±0.72 | 42.33 ± 0.23 | 37.08±0.29 | 33.67 ± 0.51 | 46.93±0.89 | 28.40 ± 0.02 | 62.01±0.15 | 20.33 ± 0.53 |  |  |  |  |  |  | 
2 | APLFY- GEQRG [CD11a456–465, LFA-1α derived peptide, purchased from GenScript] | 12.17±0.91 | 47.00 ± 0.81 | 20.26±0.69 | 42.67 ± 0.57 | 36.46±0.42 | 34.00 ± 0.08 | 51.41±0.33 | 26.00 ± 0.58 | the lowest |  |  |  |  |  | 
3 | CC[C@H](C)C(=O)O[C@H]1C[C@@H](C)C=C2C=C[C@H](C)[C@H](CC[C@@H]3C[C@@H](O)CC(=O)O3)[C@H]21 [lovastatin, reference compound] |  |  | 69.48±0.77 | 16.33 ± 0.76 | 73.84±0.56 | 14.00 ± 0.57 | 84.98±0.10 | 8.03 ± 0.01 |  | 90.03±0.06 | 5.3 | 5.33 ± 0.01 | reduction of human immunodeficiency virus type 1 replication | specifically inhibits the interaction of ICAM-1 with LFA-1 | binds with the highly conserved I-domain of LFA-1
4 | ITDGEATDSGNIDAAKDIIR-YIIGI [CD11a237–261, LFA-1α derived peptide, purchased from GenScript] | 40.81±0.31 | 31.67 ± 0.06 | 47.05±0.56 | 28.33 ± 0.51 | 53.16±0.70 | 25.06 ± 0.66 | 65.13±0.81 | 18.66 ± 0.06 | highest inhibition efficiency |  |  |  |  |  | 
